Test results from patent US8143419B2, “Trisubstituted 1,2,4-triazoles” (Janssen Pharmaceutica N. V., priority 2006, dated 2012).

Columns and labels:
hα7-wt nAChR = molecular target: T1, hα7-wt nAChR (Homo sapiens, UniProt P36544); assay: Ca2+ flux imaging (FLIPR) (Protocol A), PAM activity with choline as agonist; format: cell-based; details: for EC50: "<5" = no top plateau at maximal concentration; for Emax: read-out: % efficacy
T1 construct: expressed in transfected cells
Description: Stable expression in mammalian cells in general and rat GH4C1 cells in particular, of cDNA clones encoding the human α7 wild-type sequence (hα7-wt nAChR) and in which the coding region is placed downstream of a promoter results in the appearance of functional α7 nAChRs on the surface of the mammalian cells. This technique has provided a powerful means of assessing the function of α7 wild-type protein. Given the fact that the cation permeability of the α7 nicotinic receptor preferentially favours calcium, fluorescent imaging of Ca^2+ flux through the hα7-wt nAChR stably expressed in the GH4C1 cell line was used as a first means of assaying modulator activity of the compounds of the present invention.
• Hanks buffered saline solution (HBSS, Invitrogen, Belgium), supplemented with 10 mM HEPES (Invitrogen, Belgium), CaCl2 to a final concentration of 5 mM, 0.1% Bovine serum albumin (Sigma-Aldrich NV, Belgium), 2.5 mM probenecid (Sigma-Aldrich NV, Belgium). b) Calcium-Sensitive Dye—Fluo-4AM • Fluo-4AM (Molecular Probes, USA) was dissolved in DMSO containing 10% Pluronic acid (Molecular Probes, USA) to give a stock solution which was aliquoted and stored at −20° C. until later use. On the day of the experiment Fluo-4AM stock was defrosted and diluted in DMEM/F12 (Invitrogen, Belgium) to give a final concentration of 4 μM. c) 96-Well Plates • BD Biocoat poly-D-lysine 96-well black/clear plates (BD Biosciences, Belgium) d) Calcium Flux Measurement • A Fluorimetric Imaging Plate Reader (FLIPR, Molecular Devices Corporation, Sunnyvale, USA) was used to measure intracellular free-calcium flux signals Method
Monolayers of hα7-wt nAChR-expressing cells were grown in multi-well plates, in particular black-sided, transparent bottomed 96 well plates coated with poly-D-lysine for 24 hours prior to loading with a fluorescent calcium indicator, in a particular embodiment loading with fluo-3 or fluo-4AM for up to 90 minutes, in an even more particular embodiment loading with fluo-4AM for up to 90 minutes, and in a preferred embodiment loading with fluo-4AM for up to 60 minutes.
PAM activity was detected in real time by applying the compounds to be tested to the loaded cells along with a α7 nicotinic receptor agonist during constant monitoring of cellular fluorescence in a FLIPR. Compounds giving peak fluorescent responses greater than the response due to agonist alone, were considered to be α7 nAChR PAM's. In a particular embodiment, the α7 nicotinic receptor agonist was choline, a more particular embodiment choline applied at a sub-maximal concentration of 100 μM. In a further setting of the present invention the compounds to be tested were applied prior to the α7 nicotinic receptor agonist, in a particular embodiment up to 20 minutes prior to the agonist, a more particular embodiment up to 10 minutes prior to the agonist, and an even more particular embodiment 10 minutes prior to the agonist.
A control response to choline was calculated on each plate from the difference in peak in fluorescence in wells receiving either choline or assay buffer alone. Compounds of the present invention were tested at a concentration range from 0.1 μM to 50 μM. Compounds were considered to have an interesting activity when their efficacy was at least 500% when tested at the concentration where they have a maximal effect, typically between 0.1 μM and 50 μM (the efficacy of 100 μM choline was defined as 100% in the absence of a PAM). The compounds also have a potentiating effect on the response to choline when measured by whole-cell patch clamp electrophysiology in GH4C1 cells stably over-expressing the human wild-type α7 receptor.

T1 sequence (P36544 23-502): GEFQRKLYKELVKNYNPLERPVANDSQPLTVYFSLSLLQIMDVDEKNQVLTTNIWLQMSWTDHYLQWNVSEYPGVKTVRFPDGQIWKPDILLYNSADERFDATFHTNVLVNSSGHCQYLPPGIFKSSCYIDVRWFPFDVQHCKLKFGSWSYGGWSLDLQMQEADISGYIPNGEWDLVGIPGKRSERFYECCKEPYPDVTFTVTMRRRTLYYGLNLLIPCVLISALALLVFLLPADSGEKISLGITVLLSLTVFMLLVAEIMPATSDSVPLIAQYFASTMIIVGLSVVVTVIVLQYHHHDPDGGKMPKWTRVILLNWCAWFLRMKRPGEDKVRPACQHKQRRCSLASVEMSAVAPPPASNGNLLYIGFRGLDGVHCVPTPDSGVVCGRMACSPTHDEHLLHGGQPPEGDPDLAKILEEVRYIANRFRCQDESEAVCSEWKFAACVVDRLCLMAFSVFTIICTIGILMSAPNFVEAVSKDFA

Compound | EC50 (hα7-wt nAChR) [µM] | melting point [°C] | Emax (hα7-wt nAChR) [%]
CNC(=O)Cn1nc(Nc2cccc(C(F)(F)F)c2)nc1-c1ccc(Cl)cc1Cl [Compound 13] | 2 | 179.9 to 182.1 | 
OCCn1nc(Nc2cccc(C(F)(F)F)c2)nc1-c1cccnc1 [Compound 16] | 7.94 | 158.2 to 159 | 583
OCCn1nc(Nc2cccc(C(F)(F)F)c2)nc1-c1cnc2ccccc2c1 [Compound 80] | 3.16 | 182 | 
NC(=O)Cn1nc(Nc2cccc(C(F)(F)F)c2)nc1-c1ccc(Cl)cc1Cl [Compound 20] | > 10 | 203.6 to 206.4 | 
CN(C)C(=O)CCn1nc(Nc2cccc(C(F)(F)F)c2)nc1-c1ccc2c(c1)OCCO2 [Compound 6] | 0.158 | 195.7 to 196.6 | 
COCCn1nc(Nc2cccc(C(F)(F)F)c2)nc1-c1ccncc1 [Compound 52] | 7.94 | 147.2 | 641
FCCn1nc(Nc2cc(F)cc(F)c2)nc1-c1ccnc(C2CC2)c1 [Compound 177] | 3.98 | 150.3 | 
C[C@H](O)Cn1nc(Nc2ccc(F)c(F)c2)nc1-c1ccnc(C2CC2)c1 [Compound 175] | 2.51 | 131.4 | 904
OCCn1nc(Nc2cccc(C(F)(F)F)c2)nc1-c1cnc2ccoc2c1 [Compound 79] | > 10 | 158.8 | 
OCCn1nc(Nc2cccc(C(F)(F)F)c2)nc1-c1ccc2c(c1)OCCO2 [Compound 3] | 3.16 | 188.3 to 190.3 | 
COc1ccc(Cl)c(Nc2nc(-c3ccc4c(c3)OCCO4)n(CCC(=O)N(C)C)n2)c1 [Compound 196] | 3.16 | 134.7 to 136.7 | 
OCCn1nc(Nc2cccc(C(F)(F)F)c2)nc1-c1ccnc(N2CCOCC2)c1 [Compound 38] | 3.98 | 167.4 | 
CCOC(=O)Cn1nc(Nc2cccc(C(F)(F)F)c2)nc1-c1ccc2c(c1)OCO2 [Compound 81] | > 10 | 149.2 | 
CC(=O)NCCCn1nc(Nc2ccc(F)c(C(F)(F)F)c2)nc1-c1ccnc(C)c1 [Compound 27] | > 10 | 171.2 | 
OCCn1nc(Nc2cccc(C(F)(F)F)c2)nc1-c1cnc2c(c1)OCC2 [Compound 78] | > 10 | 173.1 | 
Cn1nc(Nc2ccccc2)nc1-c1ccc(Cl)cc1Cl [Compound 18] | > 10 | 193 to 194 | 
CN(C)C(=O)CCn1nc(N(C)c2ccc(F)c(C(F)(F)F)c2)nc1-c1ccc2c(c1)OCCO2 [Compound 135] | 3.16 | 113.1 to 115.1 | 
